The values below come from US4731473A, “Compounds useful in treating sickle cell anemia” (Merck & Co., Inc., priority 1986, dated 1988).

Where a name gives a salt, the structure may show the parent alone.

One data set relates to erythrocyte membranes. Nature of the data set: Tests of transport across erythrocyte membranes. Format: cell-based.
In another data set the target is sickle hemoglobin (HbS) (Homo sapiens, UniProt P68871+P69905, E7V). Nature of the data set: solubility or Csat assay: solubility of deoxygenated sickle hemoglobin (Hofrichter et al.). Type of data set: biochemical. The note with it: low concentrations (5 mM); versus dichlorobenzyloxyacetic acid and p-bromobenzyloxyacetic acid. The source says:
One major assay for evaluating antisickling agents involves measuring their effect on increasing the concentration at which sickle hemoglobin forms a gel. This is called the solubility or Csat assay.
The solubility assay (Csat assay) measures the ability of a compound to increase solubility of sickle hemoglobin (HbS). […] The higher the ratio, the higher the activity of the compound.
In order to confirm the effectiveness of these compounds in reducing the effect of sickle cell anemia, tests were performed. The materials were tested according to the assay (Csat) developed by Hofrichter et al. (J. Hofrichter, P. D. Ross and W. A. Eaton, Proc. Natl. Acad. Sci., U.S.A. 73, 30-35, 1976). This assay involves deoxygenation of concentrated sickle hemoglobin with dithionite in the presence of different concentrations of the drugs being tested. Samples are then sealed in quartz epr tubes under anaerobic conditions and spun at about 150,000 g for about 21/2 hours at about 35° C. in an ultracentrifuge. This procedure pellets the polymerized HbS (sickle hemoglobin) to the bottom of the tubes and the supernatant (soluble HbS) is measured in the laboratory as the cyanmethemoglobulin derivative. […] Activity is reported as a ratio of the HbS solubility with the particular drug to HbS solubility with no drug, i.e. control. The higher the ratio the greater degree of activity of the drug. […]

Another data set relates to HbS. Nature of the data set: Chromatographic separation: covalent binding to HbS.

As to `C=C(CC)C(=O)c1ccc(OCCCC(=O)O)c(Cl)c1Cl` [sodium salt of 4-[2,3-dichloro-4-(2-methylenebutyryl)phenoxy]butyric acid], the “ability to cross the red blood cell membrane and react with hemoglobin (in words)” value with erythrocyte membranes is “confirmed the ability of the agent to cross the red blood cell membrane and react with hemoglobin”. The “solubility ratio compared with other antisickling agents (in words)” value on sickle hemoglobin (HbS) is on record as “exhibited a higher solubility ratio than other antisickling agents”. The “covalent binding between HbS and the agent (in words)” value with HbS is “desired tight covalent binding between the HbS and the therapeutic agent had occurred”.
